From patent EP3623369A1, “NOVEL MORPHOLINYL AMINE COMPOUNDS FOR THE TREATMENT OF AUTOIMMUNE DISEASE” (F. Hoffmann-La Roche AG, priority 2018, dated 2020)

What follows are compounds tested against T1, human TLR8 (Homo sapiens, UniProt Q9NR97) (assay: HEK293-Blue-hTLR-8 cells assay (SEAP reporter, R848 stimulation)). Conditions: HEK293-Blue-hTLR8 cells, R848, 20 hrs; 0.003 is the lowest tested concentration; read-out: HEK/hTLR8 IC50.
T1 sequence (Q9NR97 27-1041): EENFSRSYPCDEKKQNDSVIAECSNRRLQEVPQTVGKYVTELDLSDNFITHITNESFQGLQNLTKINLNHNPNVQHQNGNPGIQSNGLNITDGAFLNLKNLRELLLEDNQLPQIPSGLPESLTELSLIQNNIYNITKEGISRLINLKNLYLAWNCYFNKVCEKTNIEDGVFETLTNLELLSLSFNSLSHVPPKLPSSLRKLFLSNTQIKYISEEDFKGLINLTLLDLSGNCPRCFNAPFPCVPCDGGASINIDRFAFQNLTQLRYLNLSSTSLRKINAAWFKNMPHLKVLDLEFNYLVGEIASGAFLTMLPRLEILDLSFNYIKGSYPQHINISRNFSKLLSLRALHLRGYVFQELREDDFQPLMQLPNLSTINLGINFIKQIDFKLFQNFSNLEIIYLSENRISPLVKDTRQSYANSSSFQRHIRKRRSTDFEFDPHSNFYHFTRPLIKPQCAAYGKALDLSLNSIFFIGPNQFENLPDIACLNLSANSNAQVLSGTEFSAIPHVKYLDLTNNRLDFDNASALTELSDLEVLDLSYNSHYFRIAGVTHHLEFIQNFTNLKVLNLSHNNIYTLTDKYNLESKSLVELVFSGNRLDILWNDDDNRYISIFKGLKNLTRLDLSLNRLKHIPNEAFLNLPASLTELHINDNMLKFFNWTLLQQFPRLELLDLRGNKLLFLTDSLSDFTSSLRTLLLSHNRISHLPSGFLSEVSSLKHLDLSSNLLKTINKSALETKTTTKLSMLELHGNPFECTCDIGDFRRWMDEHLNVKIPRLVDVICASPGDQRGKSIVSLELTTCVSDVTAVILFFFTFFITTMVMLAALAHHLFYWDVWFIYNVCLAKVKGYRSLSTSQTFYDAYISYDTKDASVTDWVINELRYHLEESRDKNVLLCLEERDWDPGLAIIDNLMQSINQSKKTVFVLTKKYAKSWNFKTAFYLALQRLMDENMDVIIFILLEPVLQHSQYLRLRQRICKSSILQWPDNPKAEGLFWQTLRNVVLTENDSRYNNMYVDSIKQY
Type: cell-based
Procedure: The following tests were carried out in order to determine the activity of the compounds of formula (I) or (Ia) in HEK293-Blue-hTLR-7/8/9 cells assay.
HEK293-Blue-hTLR-8 cells assay:
A stable HEK293-Blue-hTLR-8 cell line was purchased from InvivoGen (Cat.#: hkb-htlr8, San Diego, California, USA). These cells were originally designed for studying the stimulation of human TLR8 by monitoring the activation of NF-κB. A SEAP (secreted embryonic alkaline phosphatase) reporter gene was placed under the control of the IFN-β minimal promoter fused to five NF-κB and AP-1-binding sites. The SEAP was induced by activating NF-κB and AP-1 via stimulating HEK-Blue hTLR8 cells with TLR8 ligands. Therefore the reporter expression was declined by TLR8 antagonist under the stimulation of a ligand, such as R848, for incubation of 20 hrs. The cell culture supernatant SEAP reporter activity was determined using QUANTI-Blue™ kit (Cat.#: rep-qb1, Invivogen, San Diego, Ca, USA) at a wavelength of 640 nm, a detection medium that turns purple or blue in the presence of alkaline phosphatase.
HEK293-Blue-hTLR8 cells were incubated at a density of 250,000∼450,000 cells/mL in a volume of 170 µL in a 96-well plate in Dulbecco's Modified Eagle's medium (DMEM) containing 4.5 g/L glucose, 50 U/mL penicillin, […], […], 2 mM L-glutamine, 10% (v/v) heat-inactivated fetal bovine serum with addition of 20 µL test compound in a serial dilution in the presence of final DMSO at 1% and 10 µL of 60uM R848 in above DMEM, perform incubation under 37 °C in a CO2 incubator for 20 hrs. Then 20 µL of the supernatant from each well was incubated with 180 µL Quanti-blue substrate solution at 37°C for 2 hrs and the absorbance was read at 620∼655 nm using a spectrophotometer. The signalling pathway that TLR8 activation leads to downstream NF-κB activation has been widely accepted, and therefore similar reporter assay was modified for evaluating TLR8 antagonist.

| IC50 [µM] | Compound |
| --- | --- |
| < 0.003 | C[C@@H]1CN(c2ccc(C#N)c3ncsc23)C[C@H](CN2Cc3ccc(N4CCNCC4)cc3C2)O1 [Example 23, 7-[(2R,6S)-2-methyl-6-[(5-piperazin-1-ylisoindolin-2-yl)methyl]morpholin-4-yl]-1,3-benzothiazole-4-carbonitrile] |
| 0.017 | C[C@@H]1CN(c2ccc(Cl)c3ncccc23)C[C@H](CN2CCc3cc(N4CCNCC4)ccc3C2)O1 [Example 32, (2R,6S)-4-(8-chloro-5-quinolyl)-2-methyl-6-[(6-piperazin-1-yl-3,4-dihydro-1H-isoquinolin-2-yl)methyl]morpholine] |
| < 0.003 | C[C@@H]1CN(c2ccc(C#N)c3ncccc23)C[C@H](CN2CCc3cc(N4CCNCC4)ncc3C2)O1 [Example 70, 5-[(2R,6S)-2-methyl-6-[(6-piperazin-1-yl-3,4-dihydro-1H-2,7-naphthyridin-2-yl)methyl]morpholin-4-yl]quinoline-8-carbonitrile] |
| 0.004 | C[C@@H]1CN(c2ccc(C#N)c3ncccc23)C[C@H](CN2Cc3ccc(N4CCNCC4C(F)F)cc3C2)O1 (stereo partly drawn) [Example 76, 5-[(2S,6R)-2-[[5-[2-(difluoromethyl)piperazin-1-yl]isoindolin-2-yl]methyl]-6-methyl-morpholin-4-yl]quinoline-8-carbonitrile] |
| 0.018 | CC1c2ccc(N3CCNCC3)cc2CN1C[C@H]1CN(c2ccc(C#N)c3ncccc23)C[C@@H](C)O1 (stereo partly drawn) [Example 48, 5-[(2R,6S)-2-methyl-6-[(1-methyl-5-piperazin-1-yl-isoindolin-2-yl)methyl]morpholin-4-yl]quinoline-8-carbonitrile] |
| 0.009 | C[C@@H]1CN(c2ccc(C#N)c3nccnc23)C[C@H](CN2Cc3ccc(N4CCN(C5CC5)CC4)cc3C2)O1 [Example 35, 8-[(2S,6R)-2-[[5-(4-cyclopropylpiperazin-1-yl)isoindolin-2-yl]methyl]-6-methyl-morpholin-4-yl]quinoxaline-5-carbonitrile] |
| 0.031 | C[C@@H]1CN(c2ccc(C#N)n3nccc23)C[C@H](CN2Cc3cc(N4CCNCC4)cnc3C2)O1 [Example 18, 4-[(2R,6S)-2-methyl-6-[(3-piperazin-1-yl-5,7-dihydropyrrolo[3,4-b]pyridin-6-yl)methyl]morpholin-4-yl]pyrazolo[1,5-a]pyridine-7-carbonitrile] |
| 0.052 | C[C@@H]1CN(c2ccc(C#N)n3nccc23)C[C@H](CN2CCc3cc(N4CCNCC4)ccc3C2)O1 [Example 10, 4-[(2R,6S)-2-methyl-6-[(6-piperazin-1-yl-3,4-dihydro-1H-isoquinolin-2-yl)methyl]morpholin-4-yl]pyrazolo[1,5-a]pyridine-7-carbonitrile] |
| 0.005 | C[C@@H]1CN(c2ccc(Cl)c3nccnc23)C[C@H](CN2CCc3cc(N4CCNCC4)ccc3C2)O1 [Example 34, (2R,6S)-4-(8-chloroquinoxalin-5-yl)-2-methyl-6-[(6-piperazin-1-yl-3,4-dihydro-1H-isoquinolin-2-yl)methyl]morpholine] |
| 0.004 | C[C@@H]1CN(c2ccc(C#N)c3ncccc23)C[C@H](CN2CCc3nc(N4CCNCC4)ccc3C2)O1 [Example 79, 5-[(2R,6S)-2-methyl-6-[(2-piperazin-1-yl-7,8-dihydro-5H-1,6-naphthyridin-6-yl)methyl]morpholin-4-yl]quinoline-8-carbonitrile] |
| 0.036 | COC(=O)C1CN(c2ccc3c(c2)CN(C[C@H]2CN(c4ccc(C#N)c5ncccc45)C[C@@H](C)O2)C3)CCN1 (stereo partly drawn) [Example 67, Methyl 4-[2-[[(2S,6R)-4-(8-cyano-5-quinolyl)-6-methyl-morpholin-2-yl]methyl]isoindolin-5-yl] piperazine-2-carboxylate] |
| 0.006 | C[C@@H]1CN(c2ccc3c(c2)CN(C[C@H]2CN(c4ccc(C#N)c5ncccc45)C[C@@H](C)O2)C3)C[C@H](C)N1 [Example 71, 5-[(2R,6S)-2-methyl-6-[[5-[(3R,5S)-3,5-dimethylpiperazin-1-yl]isoindolin-2-yl]methyl]morpholin-4-yl]quinoline-8-carbonitrile] |
| 0.023 | C[C@@H]1CN(c2ccc(C#N)c3ncccc23)C[C@H](CN2Cc3ccc(N4CC5(CNC5)C4)cc3C2)O1 [Example 47, 5-[(2S,6R)-2-[[5-(2,6-diazaspiro[3.3]heptan-2-yl)isoindolin-2-yl]methyl]-6-methyl-morpholin-4-yl]quinoline-8-carbonitrile] |
| 0.052 | C[C@@H]1CN(c2ccc(C#N)n3nccc23)C[C@H](CN2Cc3ccc(N4CCN(C)CC4)cc3C2)O1 [Example 17, 4-[(2R,6S)-2-methyl-6-[[5-(4-methylpiperazin-1-yl)isoindolin-2-yl]methyl]morpholin-4-yl]pyrazolo[1,5-a]pyridine-7-carbonitrile] |
| 0.012 | C[C@@H]1CN(c2ccc3c(c2)CN(C[C@H]2CN(c4ccc(C#N)c5ncccc45)C[C@@H](C)O2)C3)C[C@@H](C)N1 (mixture of isomers) [Example 57, Trans-5-[(2R,6S)-2-methyl-6-[[5-[3,5-dimethylpiperazin-1-yl]isoindolin-2-yl]methyl]morpholin-4-yl]quinoline-8-carbonitrile] |
| 0.004 | C[C@@H]1CN(c2ccc(C#N)c3ncccc23)C[C@H](CN2Cc3ccc(N4CCNCC4)cc3C(O)C2)O1 (stereo partly drawn) [Example 75, 5-[(2S,6R)-2-[(4-hydroxy-6-piperazin-1-yl-3,4-dihydro-1H-isoquinolin-2-yl)methyl]-6-methyl-morpholin-4-yl]quinoline-8-carbonitrile] |
| 0.079 | C[C@@H]1CN(c2ccc(C#N)n3nccc23)C[C@H](CN2Cc3ccc(C4CCNCC4)cc3C2)O1 [Example 8, 4-[(2R,6S)-2-methyl-6-[[5-(4-piperidyl)isoindolin-2-yl]methyl]morpholin-4-yl]pyrazolo[1,5-a]pyridine-7-carbonitrile] |
| 0.057 | C[C@@H]1CN(c2ccc(C#N)n3nccc23)C[C@H](CN2Cc3ccc(N4CCNCC4)cc3C2)O1 [Example 4, 4-[(2R,6S)-2-methyl-6-[(5-piperazin-1-ylisoindolin-2-yl)methyl]morpholin-4-yl]pyrazolo[1,5-a]pyridine-7-carbonitrile] |
| 0.004 | C[C@@H]1CN(c2ccc(C#N)c3ncsc23)C[C@H](CN2CCc3cc(N4CCNCC4)ccc3C2)O1 [Example 24, 7-[(2R,6S)-2-methyl-6-[(6-piperazin-1-yl-3,4-dihydro-1H-isoquinolin-2-yl)methyl]morpholin-4-yl]-1,3-benzothiazole-4-carbonitrile] |
| 0.005 | C[C@@H]1CN(c2ccc(Cl)c3nccnc23)C[C@H](CN2Cc3ccc(N4CCNCC4)cc3C2)O1 [Example 33, (2R,6S)-4-(8-chloroquinoxalin-5-yl)-2-methyl-6-[(5-piperazin-1-ylisoindolin-2-yl)methyl]morpholine] |

| Compound | IC50 [µM] |
| --- | --- |
| C[C@@H]1CN(c2ccc(C#N)c3ncccc23)C[C@H](CN2Cc3ccc(N4CC5COCC(C4)N5)cc3C2)O1 [Example 72, 5-[(2R,6S)-2-methyl-6-[[5-(3-oxa-7,9-diazabicyclo[3.3.1]nonan-7-yl)isoindolin-2-yl]methyl]morpholin-4-yl]quinoline-8-carbonitrile] | 0.009 |
| 3-fluoro-4-[(2R,6S)-2-methyl-6-[(5-piperazin-1-ylisoindolin-2-yl)methyl]morpholin-4-yl]pyrazolo[1,5-a]pyridine-7-carbonitrile [Example 7] | 0.013 |
